Laboratory results reported in patent US20020168389A1, “Stable skin conditioning compositions containing retinoid boosters” (priority 2000, published 2002).

What was measured:
TGase I = experiment: Transglutaminase (TGase I ELISA) assay in cultured keratinocytes with retinol; format: cell-based; settings: Keratinocyte, read-out: Overall TG (IC 50)
Retinal Reductase = experiment: Assay for Retinal Reductase Activity, rat liver microsomes (to identify B3); format: biochemical; settings: test compound final 100 μM
Procedure: The resulting homogenate was successively centrifuged for 30 min. at 10,000 g, 30 min. at 20,000 g, and 15 min. at 30,000 g, and the resulting supernatant was ultracentrifuged for 80 min. at 105,000 g. […] Protein concentrations were determined as described above. […] All stock solution were prepared as above with the following substitutions: 10 mM all trans Retinaldehyde (Sigma R2500) in DMSO—instead of retinol. 200 mM, Nicotinamide adenine dinucleotide phosphate, reduced form, tetrasodium salt (NADPH) (Sigma N7505) in sterile water—instead of NADP. In a two-dram glass vial with screw cap, add the following in order: […] 25 μl diluted Microsomes (final=100 μg)—use boiled Microsomes for controls and regular Microsomes for test samples. […] 3 μl of 10 mM retinaldehyde (final=75 μM) Follow the same incubation and extraction procedure as detailed above. […] Aliquots of 60 μL were injected immediately and analyzed for retinoid content. The chromatography instrumentation consisted of a Waters 600 gradient controller/pump, a Waters 996 Photodiode Array detector and a Waters 474 Scanning Fluorescence detector. Two HPLC protocols were used for retinoid analysis. […] The eluate was monitored for absorbance at 325 nm and fluorescence at 325 ex/480 em. […] B. Barua, “Analysis of Water-Soluble Compounds: Glucuronides”, Methods Enzymol. 189, 136-145 (1990). […] These protocols were selected based on their ability to clearly resolve pertinent retinoid acids, alcohols, aldehydes, and/or esters for each assay and relative quickness of separation. Identification of individual retinoids by HPLC was based on an exact match of the retention time of unknown peaks with that of available authentic retinoid standards and UV spectra analysis (300-400 nm) of unknown peaks against available authentic retinoids.

Retinol Dehydrogenase = experiment: Assay for Retinol Dehydrogenase Activity, rat liver microsomes (to identify B2); format: biochemical; settings: ranking among B2 compounds
Procedure: The resulting homogenate was successively centrifuged for 30 min. at 10,000 g, 30 min. at 20,000 g, and 15 min. at 30,000 g, and the resulting supernatant was ultracentrifuged for 80 min. at 105,000 g. […] Protein concentrations were determined as described above.
2.4 Assay for Retinol Dehydrogenase Activity (To identify B2)
The following stock solutions were prepared:
50 mM KH2PO4, pH 7.4 buffer, sterile filtered.
10 mM all trans Retinol (Sigma R7632) in DMSO.
200 mM Nicotinamide adenine dinucleotide phosphate, sodium salt (NADP) (Sigma N0505) in sterile water.
40 mM test compound in appropriate solvent (water, buffer, ethanol, chloroform or DMSO).
1:10 dilution of rat liver Microsomes in 50 mM KH2PO4, pH 7.4 buffer (4 ug/ul).
In a two-dram glass vial with screw cap, add the following in order:
Buffer to give a final volume of 400 μl
25 μl diluted Microsomes (final=100 μg)−use boiled Microsomes for controls and regular Microsomes for test samples.
4 μl of 200 mM NADP (final=2 mM)
1 μl of 40 mM test compound (final=100 μM)
8 μl of 10 mM retinol (final=200 μM) […]
Aliquots of 60 μL were injected immediately and analyzed for retinoid content.
The chromatography instrumentation consisted of a Waters 600 gradient controller/pump, a Waters 996 Photodiode Array detector and a Waters 474 Scanning Fluorescence detector. […] The eluate was monitored for absorbance at 325 nm and fluorescence at 325 ex/480 em. […]

Row | Compound | % lnhibition Retinal Reductase (Retinal Reductase) | also measured
1 | Oc1cccc2cccnc12 [Hydroxyquinoline, Hydroxyquinoline (Carbostyril)] | – | IC50 (TGase I): 364 µM
2 | CCCCCCCCCCCCCC(=O)O [Myristic Acid] | 26% | –
3 | COc1cc(C=O)ccc1O [Vanillin] | 6% | –
4 | Phosphatidyl Choline | – | activity as activator of Retinol Dehydrogenase (in words) (Retinol Dehydrogenase): Most preferred as most active activator of
5 | Phosphatidyl ethanolamine | 37% | –
